# Experimental data as given in US20230406885A1, “CYCLIC PEPTIDES FOR TRAPPING INTERLEUKIN-1 BETA” (MERCK SHARP & DOHME LLC, priority 2022, published 2023).
# pIC50: −log10 of the molar value. *1 amine or outer side, *2 acyl side, *3 side chain or, on linkers, in order; H or OH if unused. Where a SMILES comes first, the peptide text is derived from it. [ ]: non-standard residue; d: D form. Trp(4-Cl)(βS-Me) = C[C@@H](c1c[nH]c2cccc(Cl)c12)[C@H](N)C(=O)O; Trp(βS-Me,4-F) = C[C@@H](c1c[nH]c2cccc(F)c12)[C@H](N)C(=O)O; Bip(4'-COOH) = N[C@@H](Cc1ccc(-c2ccc(C(=O)O)cc2)cc1)C(=O)O; X1 = CC(=O)N1CCN(c2ccc(C[C@H](N[*:1])C(=O)[*:2])cn2)CC1; 1Nal(3S-Me) = C[C@@H](c1cccc2ccccc12)[C@H](N)C(=O)O; hPhe(4-CF3) = N[C@@H](CCc1ccc(C(F)(F)F)cc1)C(=O)O; X8 = O=C([C@H](CCc1cccc(C(F)(F)F)c1)N[*:1])[*:2]; Phe(4-COOH) = N[C@@H](Cc1ccc(C(=O)O)cc1)C(=O)O; Trp(7-F) = N[C@@H](Cc1c[nH]c2c(F)cccc12)C(=O)O; Trp(7-aza) = N[C@@H](Cc1c[nH]c2ncccc12)C(=O)O; h3Pal(5-CN) = N#Cc1cncc(CC[C@H](N)C(=O)O)c1; Pro(4R-NH2) = N[C@H]1CN[C@H](C(=O)O)C1; 1Nal = N[C@@H](Cc1cccc2ccccc12)C(=O)O; AEF = NCCOc1ccc(C[C@H](N)C(=O)O)cc1; hTyr = N[C@@H](CCc1ccc(O)cc1)C(=O)O; hPhe = N[C@@H](CCc1ccccc1)C(=O)O; 4Pal = N[C@@H](Cc1ccncc1)C(=O)O; dNle = CCCC[C@@H](N)C(=O)O; dDab = NCC[C@@H](N)C(=O)O; dNMeA = CN[C@H](C)C(=O)O; Dab = NCC[C@H](N)C(=O)O; Dap = NC[C@H](N)C(=O)O; Aib = CC(C)(N)C(=O)O
# Biological target: T1, Recombinant human IL-1β (Homo sapiens, UniProt P01584)
# T1 construct: purchased BioLegend 579404
# Experiment: IL-6 assay in MRC5 cells: inhibition of IL-1β induced IL-6 secretion (AlphaLISA)
# Type: cell-based
# Details: inhibition of IL-1β induced IL-6 secretion in MRC5 cells; IL-1β pre-incubated 1 hour with compound; read-out: MRC5 IC50
# Summary of the method: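 IL-1β at 2×EC80 in seeding medium (EMEM, 0.025% BSA) preincubated 1 h at ambient temperature with compound, then 3000 MRC5 cells/well added and incubated overnight at 37 °C, 5% CO2. IL-6 in conditioned medium quantified by AlphaLISA; IC50 from 4-parameter logistic fit.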
# T1 sequence (P01584 117-269): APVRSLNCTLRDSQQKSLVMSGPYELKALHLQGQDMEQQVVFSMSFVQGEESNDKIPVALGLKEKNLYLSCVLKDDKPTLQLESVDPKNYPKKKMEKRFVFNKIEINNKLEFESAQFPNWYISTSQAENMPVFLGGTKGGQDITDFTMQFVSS
row,pIC50,Compound
1,10.16,C[C@@H]1C(=O)NCC(=O)N[C@@H](Cc2ccc(-c3ccc(C(=O)O)cc3)cc2)C(=O)N[C@@H](Cc2c[nH]c3ccccc23)C(=O)NCC(=O)N[C@H](CCN)C(=O)N[C@@H](CCc2ccc(O)cc2)C(=O)N[C@@H](Cc2ccc(-c3ccc(C(=O)O)cc3)cc2)C(=O)N[C@@H](Cc2c[nH]c3ccccc23)C(=O)N[C@@H](Cc2ccc(C(=O)O)cc2)C(=O)NCC(=O)N2C[C@H](N)C[C@H]2C(=O)N[C@@H]([C@@H](C)c2c[nH]c3cccc(Cl)c23)C(=O)N[C@@H](CC(=O)O)C(=O)N1C [Example 54] (cyclo([Bip(4'-COOH)]W[Phe(4-COOH)]G[Pro(4R-NH2)][Trp(4-Cl)(βS-Me)]D[dNMeA]G[Bip(4'-COOH)]WG[dDab][hTyr]))
2,10.01,"CC(C)C[C@@H]1NC(=O)[C@H](CCCCN)NC(=O)[C@H](Cc2ccc(-c3ccc(C(=O)O)cc3)cc2)NC(=O)CNC(=O)[C@@H](C)N(C)C(=O)[C@H](CC(=O)O)NC(=O)[C@H]([C@@H](C)c2c[nH]c3cccc(F)c23)NC(=O)[C@@H]2C[C@@H](N)CN2C(=O)CNC(=O)[C@H](Cc2ccc(C(=O)O)cc2)NC(=O)[C@H](Cc2c[nH]c3ccccc23)NC(=O)[C@H](Cc2ccc(-c3ccc(C(=O)O)cc3)cc2)NC(=O)[C@H](CCc2ccc(O)cc2)NC(=O)CNC1=O [Example 70] (cyclo([Bip(4'-COOH)]W[Phe(4-COOH)]G[Pro(4R-NH2)][Trp(βS-Me,4-F)]D[dNMeA]G[Bip(4'-COOH)]KLG[hTyr]))"
3,9.56,CC(=O)NCCOc1ccc(C[C@@H]2NC(=O)[C@H](CCc3ccc(C(F)(F)F)cc3)NC(=O)[C@@H](C)NC(=O)[C@H](CCN)NC(=O)[C@H](Cc3ccncc3)NC(=O)[C@H](Cc3ccc(-c4ccc(C(=O)O)cc4)cc3)NC(=O)CNC(=O)[C@@H](C)N(C)C(=O)[C@H](CC(=O)O)NC(=O)[C@H]([C@@H](C)c3cccc4ccccc34)NC(=O)[C@@H]3C[C@@H](N)CN3C(=O)CNC(=O)[C@H](Cc3ccc(C(=O)O)cc3)NC(=O)[C@H](Cc3c[nH]c4ccccc34)NC2=O)cc1 [Example 100] (cyclo([AEF](Ac)W[Phe(4-COOH)]G[Pro(4R-NH2)][1Nal(3S-Me)]D[dNMeA]G[Bip(4'-COOH)][4Pal][Dab][dA][hPhe(4-CF3)]))
4,9.57,CC(=O)NCCOc1ccc(C[C@@H]2NC(=O)[C@H](CCc3ccc(O)cc3)NC(=O)[C@@H](C)NC(=O)[C@H](CN)NC(=O)[C@H](Cc3c[nH]c4ccccc34)NC(=O)[C@H](Cc3ccc(-c4ccc(C(=O)O)cc4)cc3)NC(=O)CNC(=O)[C@@H](C)N(C)C(=O)[C@H](C)NC(=O)[C@H]([C@@H](C)c3cccc4ccccc34)NC(=O)[C@@H]3C[C@@H](N)CN3C(=O)CNC(=O)[C@H](Cc3ccc(C(=O)O)cc3)NC(=O)[C@H](Cc3c[nH]c4ccccc34)NC2=O)cc1 [Example 89] (cyclo([AEF](Ac)W[Phe(4-COOH)]G[Pro(4R-NH2)][1Nal(3S-Me)]A[dNMeA]G[Bip(4'-COOH)]W[Dap][dA][hTyr]))
5,9.53,CC(=O)NCCOc1ccc(C[C@@H]2NC(=O)[C@H](C)NC(=O)[C@@H](C)NC(=O)[C@H](CC(C)C)NC(=O)[C@H](Cc3cccc4ccccc34)NC(=O)[C@H](Cc3ccc(-c4ccc(C(=O)O)cc4)cc3)NC(=O)CNC(=O)[C@@H](C)N(C)C(=O)[C@H](CC(=O)O)NC(=O)[C@H]([C@@H](C)c3cccc4ccccc34)NC(=O)[C@@H]3C[C@@H](N)CN3C(=O)CNC(=O)[C@H](Cc3ccc(C(=O)O)cc3)NC(=O)[C@H](Cc3c[nH]c4ccccc34)NC2=O)cc1 [Example 97] (cyclo([AEF](Ac)W[Phe(4-COOH)]G[Pro(4R-NH2)][1Nal(3S-Me)]D[dNMeA]G[Bip(4'-COOH)][1Nal]L[dA]A))
6,10.14,"CC(C)C[C@@H]1NC(=O)[C@H](Cc2c[nH]c3ccccc23)NC(=O)[C@H](Cc2ccc(-c3ccc(C(=O)O)cc3)cc2)NC(=O)CNC(=O)[C@@H](C)N(C)C(=O)[C@H](CC(=O)O)NC(=O)[C@H]([C@@H](C)c2c[nH]c3cccc(F)c23)NC(=O)[C@@H]2C[C@@H](N)CN2C(=O)CNC(=O)[C@H](Cc2ccc(C(=O)O)cc2)NC(=O)[C@H](Cc2c[nH]c3ccccc23)NC(=O)[C@H](Cc2ccc(-c3ccc(C(=O)O)cc3)cc2)NC(=O)[C@H](CCc2ccc(O)cc2)NC(=O)[C@@H](C)NC1=O [Example 78] (cyclo([Bip(4'-COOH)]W[Phe(4-COOH)]G[Pro(4R-NH2)][Trp(βS-Me,4-F)]D[dNMeA]G[Bip(4'-COOH)]WL[dA][hTyr]))"
7,10.63,CC(=O)NCCOc1ccc(C[C@@H]2NC(=O)[C@H](CCc3cncc(C#N)c3)NC(=O)[C@@H](CCN)NC(=O)CNC(=O)[C@H](Cc3c[nH]c4ncccc34)NC(=O)[C@H](Cc3ccc(-c4ccc(C(=O)O)cc4)cc3)NC(=O)CNC(=O)[C@@H](C)N(C)C(=O)[C@H](CC(=O)O)NC(=O)[C@H]([C@@H](C)c3cccc4ccccc34)NC(=O)[C@@H]3C[C@@H](N)CN3C(=O)CNC(=O)[C@H](Cc3ccc(C(=O)O)cc3)NC(=O)[C@H](Cc3c[nH]c4ccccc34)NC2=O)cc1 [Example 114] (cyclo([AEF](Ac)W[Phe(4-COOH)]G[Pro(4R-NH2)][1Nal(3S-Me)]D[dNMeA]G[Bip(4'-COOH)][Trp(7-aza)]G[dDab][h3Pal(5-CN)]))

# Same assay, conditions: inhibition of IL-1β induced IL-6 secretion in MRC5 cells; read-out: MRC5 IC50
row,pIC50,Compound
1,9.80,CC(=O)NCCOc1ccc(C[C@@H]2NC(=O)[C@H](CCc3ccc(O)cc3)NC(=O)C(C)(C)NC(=O)[C@H](CN)NC(=O)[C@H](Cc3c[nH]c4ccccc34)NC(=O)[C@H](Cc3ccc(-c4ccc(C(=O)O)cc4)cc3)NC(=O)CNC(=O)[C@@H](C)N(C)C(=O)[C@H](CC(=O)O)NC(=O)[C@H]([C@@H](C)c3cccc4ccccc34)NC(=O)[C@@H]3C[C@@H](N)CN3C(=O)CNC(=O)[C@H](Cc3ccc(C(=O)O)cc3)NC(=O)[C@H](Cc3c[nH]c4ccccc34)NC2=O)cc1 [Example 117] (cyclo([AEF](Ac)W[Phe(4-COOH)]G[Pro(4R-NH2)][1Nal(3S-Me)]D[dNMeA]G[Bip(4'-COOH)]W[Dap][Aib][hTyr]))
2,10.62,"CC(C)C[C@@H]1NC(=O)[C@H](CCCCN)NC(=O)[C@H](Cc2ccc(-c3ccc(C(=O)O)cc3)cc2)NC(=O)CNC(=O)[C@@H](C)N(C)C(=O)[C@H](CC(=O)O)NC(=O)[C@H]([C@@H](C)c2c[nH]c3cccc(F)c23)NC(=O)[C@@H]2C[C@@H](N)CN2C(=O)CNC(=O)[C@H](Cc2ccc(C(=O)O)cc2)NC(=O)[C@H](Cc2c[nH]c3c(F)cccc23)NC(=O)[C@H](Cc2ccc(-c3ccc(C(=O)O)cc3)cc2)NC(=O)[C@H](CCc2ccc(O)cc2)NC(=O)[C@@H](C)NC1=O [Example 185] (cyclo([Bip(4'-COOH)][Trp(7-F)][Phe(4-COOH)]G[Pro(4R-NH2)][Trp(βS-Me,4-F)]D[dNMeA]G[Bip(4'-COOH)]KL[dA][hTyr]))"
3,9.02,"CC(=O)NCCOc1ccc(C[C@@H]2NC(=O)[C@H](CCc3ccc(O)cc3)NC(=O)[C@@H](C)NC(=O)[C@H](CC(C)C)NC(=O)[C@H](Cc3ccncc3)NC(=O)[C@H](Cc3ccc(-c4ccc(C(=O)O)cc4)cc3)NC(=O)CNC(=O)[C@@H](C)N(C)C(=O)[C@H](CC(=O)O)NC(=O)[C@H]([C@@H](C)c3c[nH]c4cccc(F)c34)NC(=O)[C@@H]3C[C@@H](N)CN3C(=O)CNC(=O)[C@H](Cc3ccc(C(=O)O)cc3)NC(=O)[C@H](Cc3c[nH]c4ccccc34)NC2=O)cc1 [Example 156] (cyclo([AEF](Ac)W[Phe(4-COOH)]G[Pro(4R-NH2)][Trp(βS-Me,4-F)]D[dNMeA]G[Bip(4'-COOH)][4Pal]L[dA][hTyr]))"
4,10.77,CCCC[C@H]1NC(=O)[C@H](CC(C)C)NC(=O)[C@H](CCCCN)NC(=O)[C@H](Cc2ccc(-c3ccc(C(=O)O)cc3)cc2)NC(=O)CNC(=O)[C@@H](C)N(C)C(=O)[C@H](CC(=O)O)NC(=O)[C@H]([C@@H](C)c2cccc3ccccc23)NC(=O)[C@@H]2C[C@@H](N)CN2C(=O)CNC(=O)[C@H](Cc2ccc(C(=O)O)cc2)NC(=O)[C@H](Cc2c[nH]c3ccccc23)NC(=O)[C@H](Cc2ccc(N3CCN(C(C)=O)CC3)nc2)NC(=O)[C@H](CCc2cncc(C#N)c2)NC1=O [Example 179] (cyclo([X1]W[Phe(4-COOH)]G[Pro(4R-NH2)][1Nal(3S-Me)]D[dNMeA]G[Bip(4'-COOH)]KL[dNle][h3Pal(5-CN)]))
5,10.03,CC(=O)NCCOc1ccc(C[C@@H]2NC(=O)[C@H](CCc3cccc(C(F)(F)F)c3)NC(=O)[C@@H](C)NC(=O)[C@H](CC(C)C)NC(=O)[C@H](CCCCN)NC(=O)[C@H](Cc3ccc(-c4ccc(C(=O)O)cc4)cc3)NC(=O)CNC(=O)[C@@H](C)N(C)C(=O)[C@H](CC(=O)O)NC(=O)[C@H]([C@@H](C)c3c[nH]c4cccc(Cl)c34)NC(=O)[C@@H]3C[C@@H](N)CN3C(=O)CNC(=O)[C@H](Cc3ccc(C(=O)O)cc3)NC(=O)[C@H](Cc3c[nH]c4ccccc34)NC2=O)cc1 [Example 137] (cyclo([AEF](Ac)W[Phe(4-COOH)]G[Pro(4R-NH2)][Trp(4-Cl)(βS-Me)]D[dNMeA]G[Bip(4'-COOH)]KL[dA][X8]))
6,9.80,CC(=O)NCCOc1ccc(C[C@@H]2NC(=O)[C@H](CCc3ccccc3)NC(=O)[C@@H](C)NC(=O)[C@H](CCN)NC(=O)[C@H](Cc3c[nH]c4ccccc34)NC(=O)[C@H](Cc3ccc(-c4ccc(C(=O)O)cc4)cc3)NC(=O)CNC(=O)[C@@H](C)N(C)C(=O)[C@H](CC(=O)O)NC(=O)[C@H]([C@@H](C)c3c[nH]c4cccc(Cl)c34)NC(=O)[C@@H]3C[C@@H](N)CN3C(=O)CNC(=O)[C@H](Cc3ccc(C(=O)O)cc3)NC(=O)[C@H](Cc3c[nH]c4ccccc34)NC2=O)cc1 [Example 142] (cyclo([AEF](Ac)W[Phe(4-COOH)]G[Pro(4R-NH2)][Trp(4-Cl)(βS-Me)]D[dNMeA]G[Bip(4'-COOH)]W[Dab][dA][hPhe]))
7,9.83,"CC(=O)NCCOc1ccc(C[C@@H]2NC(=O)[C@H](CCc3ccccc3)NC(=O)[C@@H](C)NC(=O)[C@H](CC(C)C)NC(=O)[C@H](Cc3c[nH]c4ccccc34)NC(=O)[C@H](Cc3ccc(-c4ccc(C(=O)O)cc4)cc3)NC(=O)CNC(=O)[C@@H](C)N(C)C(=O)[C@H](CC(=O)O)NC(=O)[C@H]([C@@H](C)c3c[nH]c4cccc(F)c34)NC(=O)[C@@H]3C[C@@H](N)CN3C(=O)CNC(=O)[C@H](Cc3ccc(C(=O)O)cc3)NC(=O)[C@H](Cc3c[nH]c4ccccc34)NC2=O)cc1 [Example 166] (cyclo([AEF](Ac)W[Phe(4-COOH)]G[Pro(4R-NH2)][Trp(βS-Me,4-F)]D[dNMeA]G[Bip(4'-COOH)]WL[dA][hPhe]))"
